Assay results from US9532975B2, “Use of levo-oxiracetam and oxiracetam in preparation of medicines for preventing or treating coma” (CHONGQING RUNZE PHARMACEUTICAL COMPANY LIMITED., priority 2011, dated 2017).

How the values were obtained:
[1] = tested on: alcoholic coma mouse model; experiment: Alcohol-induced coma in mice, sleep time (duration of loss of righting reflex); format: in vivo; details: for wake-promoting effect on alcoholism-induced coma (in words): doses of Table 8
Experimental: • 1. Drugs and reagents: L-Oxiracetam, D-Oxiracetam and racemic oxiracetam; naloxone, purchased from Chongqing Yaoyou Pharmaceutical Co., Ltd.; anhydrous ethanol, purchased from Shanghai Chemical Reagent Co., Ltd. Physiological saline is commercially available. Each solution was freshly prepared. • 2. Preparation of ethanol solution: anhydrous ethanol was diluted with saline to produce 30% ethanol solution, freshly prepared. • 3. Experimental animals: Male mice weighing 18-22 grams were provided by the special committee, Sichuan experimental animal farms (License: SCXK (Chuan) 2008-14). Animal experiments facilities continue to maintain barriers environmental standards. Control of key environmental indicators: the temperature of 20.0-25.0° C., relative humidity of 40-70%. 10-20 air changes/hour, lighting:dark=14 h:10 h. Animals were housed in standard boxes, each box had 5. (B) Experimental Methods
1. Preparation of alcoholic coma mouse model: With reference to the literature (M. E L Yacoubi, C. Ledent, M. parmentier, et al Caffeine reduces hypnotic effects of alcohol through adenosine A2A receptor blockade [J] Neuropharmacology, 2003, 45(7):977-985) modeled the process of 30% ethanol solution intraperitoneally (0.2 ml/10 g).
2. Method of determination of states of consciousness of mouse discriminating: According to the literature (Jeffrey R. Stephens, Rene H. Levy. Effects of valproate and citrulline on ammonium-Induced encephalopathy [J] Epilepsia, 1994,35 (1):164-171) performed the determination of states of consciousness: level 1, reduced activity in the cage; level 2, limb ataxia associated with reduced activity; level 3, scrolled when placed in the bottom of the back of the cage (righting reflex), but could not stand; level 4, back into the cage end position cannot be corrected, but the damage manifested as physical stimulation retraction; level 5, righting reflex (Loss of Righting Reflex, LORR) and the lack of response to noxious stimuli. Level 4, 5, considered animal in a coma.
The 150 animals were randomly divided into 10 groups: model control group (saline only); […]; dextral Oxiracetam up two groups, respectively: 90,180 mg/kg group; L oxiracetam set up three groups, namely: 30 mg/kg, 90 mg/kg and 180 mg/kg group; naloxone group, a dose of 1.5mg/kg. After each group were successfully prepared animal models, random tables grouped righting reflex one minute after tail vein injection. The mice were observed duration of righting reflex, that sleep time. Statistical results: the experimental data with x±sd, said comparison between the groups were analyzed using ANOVA and q test, test level: α=0.05.

[2] = tested on: ketamine-induced coma in mice; experiment: Ketamine-induced coma in mice, duration of loss of righting reflex; format: in vivo, Kunming mice; details: for Time of Sleep (The duration of reflex action, min): ketamine 120 mg/kg i.p. induced coma
Experimental: • 1.1 Experimental animal and grouped 150 Kunming mice, male, weight (25.3±1.9) g, provided by the special committee of Sichuan experimental animal farms. (License: SCXK (Chuan) 2008-14). Animal experiments facilities continue to maintain barriers environmental standards. Control of key environmental indicators: the temperature of 20.0-25.0° C., relative humidity of 40-70%. 10-20 air changes/hour, lighting:dark=14 h:10 h. Animals were housed in standard boxes, each box 5.
Mice after three consecutive supine standing for 5 s can not be restored righting reflex recovery after three consecutive sit-stand for the righting reflex. • 1.4 Statistical analysis of data with x±sd was expressed using statistical software SPSS 12.0 for data analysis. The groups were compared using ANOVA, test level: A=0 05. 2. Results

[3] = tested on: traumatic brain coma in rats; experiment: Traumatic brain coma in rats (Feeney method), coma level score; format: in vivo, SD rats; details: for Remark: animals that survived: 10 animals, 8 h observation, cell wraps: All / survived
in vivo = experiment: in vivo; parameters: species or system Beagle dogs; details: dog, 50 mg/kg
Experimental: The study of comparing the pharmacokinetic of the racemic oxiracetam and L-oxiracetam determines the dose orally and intravenously to Beagle dogs for 50 mg/kg.
Take six adult Beagle dogs, the numbers of female and male were equal, which were weighted 10.0±0.5 kg and randomly divided into three groups, and each group were two with same numbers of the male and female. Latin square crossover method was used (see Table 1). Beagle dogs were administered orally and intravenously at a dose of 50 mg/kg. L-oxiracetam samples with 99.3% (optically pure) of purity were used. Each route of administration was performed every week. Animals orally administered were fasted for 12 hours […] continued fasting three hours after administration. Blank blood was taken prior to administration. Blood sample were taken 1 mL from forelimbs vein into heparinized tubes in 0.083, 0.25, 0.5, 0.75, 1.0, 1.5, 2.0, 4.0, 6.0, 8.0, 12.0 and 24.0 hours after oral administration, or taken in 0.083, 0.25, 0.5, 0.75, 1.0, 1.5, 2.0, 4.0, 6.0, 8.0, 12.0 and 24.0 hours after intravenous administration, and centrifuged to obtain plasma. The concentrations of drugs in plasma were determined by LC-MS-MS method. The results in the table below 2-7.

[4] = compared with the racemate; cited from earlier work
[5] = traumatic brain coma, 1 mg/kg, levels 1-6 (5 and 6 = coma)
[6] = both sexes, Beagle, iv, Drug concentrations in plasma
[7] = alcohol-induced coma, 30 mg/kg tail vein injection
[8] = alcohol-induced coma, 180 mg/kg tail vein injection
[9] = traumatic brain coma, 125 mg/kg, levels 1-6 (5 and 6 = coma)

C=CCN1CC[C@]23c4c5ccc(O)c4O[C@H]2C(=O)CC[C@@]3(O)[C@H]1C5 [Naloxone]
Time of Sleep (The duration of reflex action, min) ([1]; alcohol-induced coma, 1.5 mg/kg tail vein injection): 60.5 ± 7.8 min
Time of Sleep (The duration of reflex action, min) ([2]; 1.5 mg/kg): 13.5 ± 4.2 min
awaking effect on ketamine-induced coma (in words) ([2]; positive reference drug 1.5 mg/kg): significant effect
wake-promoting effect on traumatic coma (in words) ([3]; 1 mg/kg, positive drug): good wake-promoting effect
Remark: animals that survived ([3]; traumatic brain coma, 1 mg/kg): All
coma level score, post-traumatic observation point 1 h [3, 5]: 4.4 ± 0.96
coma level score, post-traumatic observation point 2 h [3, 5]: 3.6 ± 0.84
coma level score, post-traumatic observation point 8 h [3, 5]: 1.9 ± 0.88

NC(=O)CN1CC(O)CC1=O (racemic) [oxiracetam]
concentration at 1 h (in vivo; [6]): 30800 ng/mL
concentration at 1.5 h (in vivo; [6]): 38800 ng/mL
concentration at 2 h (in vivo; [6]): 35300 ng/mL
concentration at 4 h (in vivo; [6]): 13000 ng/mL
concentration at 6 h (in vivo; [6]): 9350 ng/mL
Time of Sleep (The duration of reflex action, min) ([1]; alcohol-induced coma, 60 mg/kg tail vein injection): 96.8 ± 12.7 min
Time of Sleep (The duration of reflex action, min) ([1]; alcohol-induced coma, 150 mg/kg tail vein injection): 86.1 ± 9.4 min
Time of Sleep (The duration of reflex action, min) ([1]; alcohol-induced coma, 360 mg/kg tail vein injection): 65.1 ± 10.2 min
wake-promoting effect on alcoholism-induced coma (in words) [1]: certain awaking effect
awaking effect on ketamine-induced coma (in words) ([2]; dose range 150-360 mg/kg): also had such effect
Time of Sleep (The duration of reflex action, min) ([2]; 60 mg/kg): 21.3 ± 6.7 min
Time of Sleep (The duration of reflex action, min) ([2]; 150 mg/kg): 15.3 ± 6.4 min
Time of Sleep (The duration of reflex action, min) ([2]; 360 mg/kg): 14.2 ± 6.2 min

NC(=O)CN1C[C@H](O)CC1=O [D-Oxiracetam]
Time of Sleep (The duration of reflex action, min) [1, 7]: 105.3 ± 15.8 min
Time of Sleep (The duration of reflex action, min) [1, 8]: 98.8 ± 11.6 min
wake-promoting effect on alcoholism-induced coma (in words) [1]: basically had no effect
awaking effect on ketamine-induced coma (in words) ([2]; dose range 30-180 mg/kg): no effect
Time of Sleep (The duration of reflex action, min) ([2]; 30 mg/kg): 25.6 ± 8.9 min
Time of Sleep (The duration of reflex action, min) ([2]; 180 mg/kg): 22.8 ± 6.5 min

NC(=O)CN1C[C@@H](O)CC1=O [L-oxiracetam, (S)-4-hydroxy-2-oxo-pyrrolidineacetamide]
absolute bioavailability estimated through AUC0−∞ (in vivo): 65.76±9.12%
AUC(0-inf) (in vivo; iv): 243 ± 37.8 µg·h/mL
effect of awaking relative to racemic oxiracetam ([1]; alcohol-induced coma): ~2 times
Time of Sleep (The duration of reflex action, min) [1, 7]: 85.8 ± 10.6 min
Time of Sleep (The duration of reflex action, min) ([1]; alcohol-induced coma, 75 mg/kg tail vein injection): 63.5 ± 9.8 min
Time of Sleep (The duration of reflex action, min) [1, 8]: 48.5 ± 9.1 min
wake-promoting effect on alcoholism-induced coma (in words) [1]: obvious
awaking effect on ketamine-induced coma (in words) ([2]; dose range 30-180 mg/kg): significant awaking effect
Time of Sleep (The duration of reflex action, min) ([2]; 30 mg/kg): 19.6 ± 5.6 min
Time of Sleep (The duration of reflex action, min) ([2]; 75 mg/kg): 15.2 ± 4.9 min
Time of Sleep (The duration of reflex action, min) ([2]; 180 mg/kg): 13.8 ± 3.8 min
wake-promoting effect on traumatic coma (in words) ([3]; 125 mg/kg, after 1 hour): significant improvement in awareness
Remark: animals that survived ([3]; traumatic brain coma, 125 mg/kg, 125 mg/kg): All
Remark: animals that survived ([3]; traumatic brain coma, 125 mg/kg, listed as left oxiracetam, 125 mg/kg): no occurrence of an animal died
coma level score, post-traumatic observation point 1 h [3, 9]: 5.1 ± 0.88
coma level score, post-traumatic observation point 2 h [3, 9]: 3.8 ± 0.78
coma level score, post-traumatic observation point 4 h [3, 9]: 3.0 ± 0.82
coma level score, post-traumatic observation point 8 h [3, 9]: 2.0 ± 0.67
coma level score, post-traumatic observation point 1 h ([3]; traumatic brain coma, 125 mg/kg, levels 1-6 (5 and 6 = coma), listed as left oxiracetam): 5.1
solubility (in words) [4]: significantly better than the racemate
